The results in this text go back to ChEMBL document CHEMBL1201862, “PubChem BioAssay data set” (2004).

Test systems include A549; ACHN; DU-145; EKVX; HCC 2998; HCT-15; HOP-92; HT-29; Hs-578T; LOX IMVI; MDA-MB-231; Malme-3M; OVCAR-5; PC-3; SF-539; SK-MEL-5; SK-OV-3; SN12C; U-251; UACC-257.
Common to all, as to test: NCI anticancer screen, dose series, 48 h

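Cells were grown in 96-well plates and exposed to each compound for 48 hours at five concentrations; endpoints were interpolated linearly between bracketing concentrations, or set to the highest concentration if not reached. Abbreviation: GI50, concentration required for 50% inhibition of growth.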 Calls of active or inactive are those of the source. No stated cut-off is given here; in the data, active = GI50 up to about 1.1 µM and inactive = higher.

In the case of `OC(c1cc(C23CC4CC(CC(C4)C2)C3)nc2c(Cl)cc(Cl)cc12)C1CCCCN1` (stereo not given), the GI50 was 1820 nM (inactive) in the experiment on A549; 1690 nM (inactive) in the experiment on ACHN; 1770 nM (inactive) in the experiment with DU-145; 1730 nM (inactive) with EKVX; 344 nM (active) with HCC 2998; 1830 nM with HCT-15. Moreover, the GI50 in the experiment on HOP-92 is 2050 nM (inactive); in the experiment with HT-29, 1580 nM (inactive); in the experiment on Hs-578T it was 2030 nM (inactive); in the experiment with LOX IMVI, 1490 nM (inactive); with MDA-MB-231, 1820 nM (inactive); in the experiment with Malme-3M, 1810 nM (inactive). Besides, the GI50 was 1790 nM (inactive) in the experiment on OVCAR-5; 1620 nM (inactive) in the experiment on PC-3; 2130 nM (inactive) in the experiment on SF-539; 2630 nM (inactive) in the experiment with SK-MEL-5; 1770 nM (inactive) in the experiment on SK-OV-3; 1620 nM (inactive) with SN12C. Further, the values for the GI50 with U-251 and in the experiment with UACC-257 were 1510 nM (inactive) and 1970 nM (inactive), respectively.

`O=C1c2ccccc2C(=O)c2oc(Br)cc21`: the GI50 was 344 nM (active) in the experiment on A549; 1780 nM (inactive) in the experiment with ACHN; 214 nM (active) in the experiment on DU-145; 1940 nM (inactive) in the experiment on EKVX; 1820 nM (inactive) in the experiment with HCC 2998; 566 nM in the experiment with HCT-15. The GI50 in the experiment with HOP-92 was 2020 nM (inactive); in the experiment on HT-29, 1600 nM (inactive); in the experiment with Hs-578T, 327 nM (active); in the experiment with LOX IMVI, 429 nM (active); with MDA-MB-231, 2650 nM (inactive); in the experiment with Malme-3M, 127 nM (active). Besides, the GI50 is 1670 nM (inactive) in the experiment on OVCAR-5; 2260 nM (inactive) in the experiment on PC-3; 684 nM (active) with SF-539; 144 nM (active) in the experiment on SK-MEL-5; 2140 nM (inactive) in the experiment on SK-OV-3; 953 nM (active) in the experiment with SN12C. Also, the GI50 in the experiment with U-251 was 1260 nM (inactive); with UACC-257, 266 nM (active).

As for `Cc1ccc(C)n1-c1ccccc1C1C=CN(C(=O)OC(C)(C)C)C=C1`, the GI50 in the experiment with A549 is 31100 nM (inactive); in the experiment on ACHN it was 32600 nM (inactive); in the experiment with DU-145, 56400 nM (inactive); in the experiment with EKVX it was 16400 nM (inactive); in the experiment with HCC 2998, 17300 nM (inactive); in the experiment on HCT-15, 20600 nM. Also, the GI50 is 37600 nM (inactive) with HOP-92; 12100 nM (inactive) with HT-29; 37800 nM (inactive) in the experiment with Hs-578T; 20500 nM (inactive) in the experiment with LOX IMVI; 19700 nM (inactive) in the experiment on MDA-MB-231; 15700 nM (inactive) in the experiment with Malme-3M. Moreover, the GI50 is 29600 nM (inactive) in the experiment with OVCAR-5; 25900 nM (inactive) with PC-3; 46300 nM (inactive) in the experiment with SF-539; 33400 nM (inactive) in the experiment with SK-MEL-5; > 100000 nM (inactive) in the experiment on SK-OV-3; 33600 nM (inactive) in the experiment with SN12C. Further, the values for the GI50 in the experiment on U-251 and with UACC-257 were 26300 nM (inactive) and 34700 nM (inactive), respectively.

Turning to `N#CC1(Nc2ccc(-c3ccc(NC4(C#N)CCCC4)cc3)cc2)CCCC1`, the GI50 in the experiment with A549 is > 100000 nM (inactive); in the experiment on ACHN, 34900 nM (inactive); with DU-145, > 100000 nM (inactive); in the experiment on EKVX, > 100000 nM (inactive); in the experiment with HCC 2998 it was > 100000 nM (inactive); in the experiment with HCT-15, above 100000 nM. For the same compound, the GI50 was 39300 nM (inactive) with HOP-92; 77400 nM (inactive) with HT-29; > 100000 nM (inactive) in the experiment with Hs-578T; > 100000 nM (inactive) in the experiment with LOX IMVI; > 100000 nM (inactive) in the experiment with MDA-MB-231; > 100000 nM (inactive) with Malme-3M. Besides, the GI50 is > 100000 nM (inactive) in the experiment on OVCAR-5; > 100000 nM (inactive) in the experiment with PC-3; 11800 nM (inactive) with SF-539; 59000 nM (inactive) in the experiment on SK-MEL-5; > 100000 nM (inactive) in the experiment with SK-OV-3; > 100000 nM (inactive) in the experiment with SN12C. The GI50 with U-251 and in the experiment with UACC-257 was > 100000 nM (inactive) in each case.
